According to patent US9616081B2, “Antitumor agent including low-dose irinotecan hydrochloride hydrate” (TAIHO PHARMACEUTICAL CO., LTD., priority 2013, dated 2017):
Structures can show the parent of a compound that is named as a salt.

Key:
[1] = test system: human gastric cancer cell line (SC-2); assay: Example 3: combined administration test, SC-2 tumor in mice (RTV, TGI); settings: Day 1, 8, i.v., q.d.
[2] = dose of 111 mg/kg/day; cited from earlier work
[3] = test system: human colon cancer cell line (KM20C); assay: Reference Example: survival of mice intraperitoneally transplanted with KM20C, monotherapy; assay type: in vivo; settings: i.v., weekly; for ILS (increase in life span): 6 weeks from Day 3; for Survival time (day) Mean ± SD: 6 weeks from Day 3, BALB/cA Jcl-nu mice
Procedure: Cultured cells (1×10^7 cells/mouse) of human colon cancer cell line (KM20C) were intraperitoneally transplanted into 5-6 weeks old BALB/cA Jcl-nu mice after birth, and the mice were assigned to each group so that the mean body weight of each group became equal. The date on which such grouping (n=10) was performed was taken as Day 0.
[…]. Starting the dug administration from Day 3, a 5-days' daily oral administration of the FTD/TPI combination drug with 2-days' rest was performed for 6 weeks, and CPT-11 was administered once in a week from the tail vein for 6 weeks.
As an index of the antitumor effect, the number of survivors of each group of mice and the survival time of each group was compared.

CCc1c2c(nc3ccc(OC(=O)N4CCC(N5CCCCC5)CC4)cc13)-c1cc3c(c(=O)n1C2)COC(=O)[C@]3(O)CC [CPT-11, irinotecan hydrochloride hydrate]
TGI, tumor growth inhibition rate on Day 15 ([1]; 40 mg/kg/day): 64.6% | TGI, tumor growth inhibition rate on Day 15 ([1]; 80 mg/kg/day): 79.4% | death case reported [2]: death case | ILS (increase in life span) ([3]; 80 mg/kg/day): 54.0% | Survival time (day) Mean ± SD ([3]; 80 mg/kg/day): 61.6 ± 12.6 days | ILS (increase in life span) ([3]; 100 mg/kg/day): 81.3% | Survival time (day) Mean ± SD ([3]; 100 mg/kg/day): 72.5 ± 12.3 days
